# Experimental data as given in patent US7662364B2, “Drug for hyperphospheremia and its preparative method” (priority 2006, dated 2010).
# Read-outs that look alike come from different tables or passages of the source.
# Conditions: for Removing phosphate %: 0.5 g in 100 ml, 37° C.
# Protocol: Lanthanum carbonate 0.5 g was added to 0.85% NaCl solution 100 ml (pH 6.8) and 0.85% NaCl solution 100 ml (pH7.8), respectively. Then, sufficient quantities of Na2HPO4 were added to the two solutions, stirred at 37° C. Filtered solutions were obtained at 10 min, 30 min, 40 min and 60 min, respectively. Phosphate content was determined and the percentage of removing phosphate was computed.
smiles,measurement,setting,value
O=C([O-])[O-].O=C([O-])[O-].O=C([O-])[O-].[La+3].[La+3] [Lanthanum carbonate],Removing phosphate %,"0.85% NaCl pH 6.8, 10 min",6.7%
same,Removing phosphate %,"0.85% NaCl pH 6.8, 30 min",13.7%
same,Removing phosphate %,"0.85% NaCl pH 6.8, 40 min",16.9%
same,Removing phosphate %,"0.85% NaCl pH 6.8, 60 min",20.8%
same,Removing phosphate %,"0.85% NaCl pH 7.8, 10 min",1.4%
same,Removing phosphate %,"0.85% NaCl pH 7.8, 30 min",<2.0%
same,Removing phosphate %,"0.85% NaCl pH 7.8, 40 min",<2.0%
same,Removing phosphate %,"0.85% NaCl pH 7.8, 60 min",<2.0%
same,"phosphate removal, result in words",solution whose PH was similar to that of human large intestine (pH 7.8),unable to remove phosphate
same,"phosphate removal, result in words",solution whose PH was similar to that of human small intestine (pH 6.8),removed less phosphate
